Experimental data from US6025365A, “Chelerythrine and radiation combined tumor therapy” (Arch Development Corp., priority 1997, dated 2000).

Legend:
SQ-20B xenografts = assay: Growth of SQ-20B tumor xenografts in nude mice; format: in vivo, nude mice (human tumor xenograft)
Procedure: FIG. 6. The SQ-20B xenograft system was used to assess the therapeutic efficacy of the combined treatment modality over 30 days. Forty animals (n=40) were treated in each group and the % mean tumor growth was determined for all animals. Calipers were used to measure tumor growth.
SQ-20B (1-5×10^6) tumor cells were injected into the right hind limbs of nude mice (Fredrick Cancer Research Institute). Xenografts were grown for 2-3 weeks to a mean tumor volume of […]. At day 0, initial tumor volume was determined by direct measurement with calipers. During treatment tumor volumes were measured with calipers twice weekly and represented as percent of original tumor volume. Tumor volumes were calculated by the formula (a×b×c/2) which was derived from that for an ellipsoid (d3/6). Tumor cure was defined as regression to a volume of <10% of original size since, at this volume, it is impossible to differentiate residual tumor from scar tissue. Xenografts were injected with 2 mg/kg chelerythrine chloride on days 0, 3, 7 and 10. Irradiated mice were immobilized in lucite chambers and the entire body was shielded with lead except for the tumor bearing hind limb 14. Tumors were irradiated (5 Gy/day, 4 days/week) to a total dose of 50 Gy using a Maxitron generator (1.88 Gy/min.). Tumors were treated with radiation alone, chelerythrine alone, and buffer or chelerythrine combined with radiation. Data were calculated as the percent of original (day 0) tumor volume and graphed as fractional tumor volume±SEM.
Radiation was delivered at 5 Gy/day, 4 days per week, for a total of 50 Gy.

[1] = Acute lethality / tolerability in mice
SQ20-B cells = assay: Clonogenic survival / colony formation assay; format: cell-based, human
Procedure: FIG. 2. Chelerythrine chloride enhanced IR-mediated cell killing through divisional death. Clonogenic survival was measured following exposure to increasing concentrations of chelerythrine and ionizing radiation. Cells were plated at cell numbers between about 500 cells/plate and about 2000 cells/plate and treated with 0 μM, 0.5 μM, or 1.0 μM chelerythrine chloride for 30 minutes prior to irradiation. After 2 weeks the colonies were scored for survival if they were composed of more than 50 cells. Results represent the mean of three individual experiments with duplicate or triplicate determinants. Error bars represent +/- the standard error of the means (SEM).
FIG. 5C. […] Closed circles represent radiation alone; closed squares represenet addition of 20 μM C2-Ceramide 30 minutes prior to x-ray.
Exponentially growing SQ20B cultures were trypsinized using 0.05% trypsin+0.02% EDTA. Cells (100 to 50,000) were plated in 100 mm tissue culture dishes. Chelerythrine or C2-ceramide was added 4 hours after plating and irradiated for 30 minutes after the addition of chelerythrine or C2-ceramide. The cells were irradiated using a GE Maxitron 250 x-ray generator operating at 250 kV and 26 mA with a dose rate of 114 cGy/min. After 12 days the cells were fixed and stained with crystal violet following standard procedures (Chmura et al., 1996a; 1996b). Colonies of >50 cells were scored as survivors.
Clonogenic survival was measured following increasing concentrations of chelerythrine chloride alone (0.5-1.5 μM), IR alone (1-9 Gy), or the combined treatment of cells with chelerythrine and IR. […] At a concentration of 500 nM, chelerythrine decreased cell survival to about 80% of untreated control cells (about 20% cell death). The combined treatment of cells with 500 nM of chelerythrine 30 minutes prior to treatment with 3 Gy of radiation decreased cell survival to about 30% of untreated cells (about 70% cell death). […] Cell shrinkage and nuclear condensation, characteristic of apoptosis, were not observed at these concentrations of chelerythrine and IR.

WEHI-231 cells = assay: Sphingomyelin mass by lipid extraction / TLC; format: cell-based, murine; settings: 10 μM chelerythrine, 60 minutes
Procedure: FIG. 7A. Inhibition of PKC causes an increase in ceramide production through the activation of a neutral sphingomyelinase and decreases in sphingomyelin levels. Ceramide production was quantitated using the DAG kinase assay for WEHI-231 JM cells and total lipid extraction was used to assay sphingomyelin mass. Following addition of 10 μM chelerythrine, cells were lysed at the appropriate time points as described herein. Each data point represents the average percentage change in ceramide or sphingomyelin generation from baseline derived from at least 8 independent studies for all time points with the exception of those marked with * (n=4). Standard deviations depicted by error bars.
FIG. 7B. […] Ceramide production and sphingomyelin mass was quantitated identical to that for chelerythrine. Cells were lysed 2 hours following the addition of 250 nM calphostin C. […]
Cells were prelabeled with [^3 H] palmitate (10 μCi/ml) for 24 hours to isotopic equilibrium in 15 ml glass tubes to minimize changes in cellular ceramide and sphingomyelin due to handling and changing of media (Borchardt et al., 1994). […] Autoradiographs were quantitated using an Epson 1200 c 30 bit scanner and NIH Image software (public domain program developed at the NIH and available from the Internet via FTP from zippy.nimh.nih.gov). […]

[2] = 500 nM chelerythrine 30 minutes prior to 3 Gy

COc1ccc2c(c[n+](C)c3c4cc5c(cc4ccc23)OCO5)c1OC [chelerythrine, 1,2-dimethoxy-12-methyl[1,3]benzodioxolo[5,6-c]phenanthridinium]
animals with regression to less than 10% of original tumor volume, combined treatment (SQ-20B xenografts; 2 mg/kg chelerythrine x4 plus 50 Gy, day 31): 20/41 | animals with regression to less than 10% of initial tumor volume, chelerythrine only (SQ-20B xenografts; 2 mg/kg x4, day 31): 13/43 | tumor regrowth, volume at day 30 (SQ-20B xenografts; chelerythrine alone, 2 mg/kg days 0, 3, 7, 10): 174 % of the original volume | health of animals ([1]; all treatment groups, throughout the xenograft study): appeared healthy throughout the study | LD50 ([1]; mouse, in vivo, ip): 25 mg/kg | cell death, combined treatment (SQ20-B cells; [2]): about 70% | cell survival, combined treatment (SQ20-B cells; [2]): about 30 % of untreated cells | cytotoxicity at 0.5 µM (SQ20-B cells; Homo sapiens, SQ20B, read-out: cell death): ~20% | viability at 0.5 µM (SQ20-B cells; Homo sapiens, SQ20B, 500 nM chelerythrine alone): ~80% | sphingomyelin mass (WEHI-231 cells): about 55 % of control
